# Assay results taken from ChEMBL document CHEMBL1127958, “Dual metalloprotease inhibitors. III. utilization of bicyclic and monocyclic diazepinone based mercaptoacetyls” (Bioorg Med Chem Lett, 1994).
# Columns and labels:
# Neprilysin = Neprilysin (Homo sapiens, UniProt P08473); assay: In vitro inhibitory activity against neutral endopeptidase (NEP) was determined; details: read-out: I50
# Rattus norvegicus = assay: In vivo effective dose against angiotensin I induced pressor response after intravenous administration in normotensive rats; type: functional
# [1] = target: Angiotensin-converting enzyme (Rattus norvegicus) (UniProt P47820); assay: In vitro inhibitory activity against angiotensin converting enzyme (ACE) in rat was determined; details: read-out: I50
# Sequence of Angiotensin-converting enzyme (Rattus norvegicus) (P47820 whole entry, looked up): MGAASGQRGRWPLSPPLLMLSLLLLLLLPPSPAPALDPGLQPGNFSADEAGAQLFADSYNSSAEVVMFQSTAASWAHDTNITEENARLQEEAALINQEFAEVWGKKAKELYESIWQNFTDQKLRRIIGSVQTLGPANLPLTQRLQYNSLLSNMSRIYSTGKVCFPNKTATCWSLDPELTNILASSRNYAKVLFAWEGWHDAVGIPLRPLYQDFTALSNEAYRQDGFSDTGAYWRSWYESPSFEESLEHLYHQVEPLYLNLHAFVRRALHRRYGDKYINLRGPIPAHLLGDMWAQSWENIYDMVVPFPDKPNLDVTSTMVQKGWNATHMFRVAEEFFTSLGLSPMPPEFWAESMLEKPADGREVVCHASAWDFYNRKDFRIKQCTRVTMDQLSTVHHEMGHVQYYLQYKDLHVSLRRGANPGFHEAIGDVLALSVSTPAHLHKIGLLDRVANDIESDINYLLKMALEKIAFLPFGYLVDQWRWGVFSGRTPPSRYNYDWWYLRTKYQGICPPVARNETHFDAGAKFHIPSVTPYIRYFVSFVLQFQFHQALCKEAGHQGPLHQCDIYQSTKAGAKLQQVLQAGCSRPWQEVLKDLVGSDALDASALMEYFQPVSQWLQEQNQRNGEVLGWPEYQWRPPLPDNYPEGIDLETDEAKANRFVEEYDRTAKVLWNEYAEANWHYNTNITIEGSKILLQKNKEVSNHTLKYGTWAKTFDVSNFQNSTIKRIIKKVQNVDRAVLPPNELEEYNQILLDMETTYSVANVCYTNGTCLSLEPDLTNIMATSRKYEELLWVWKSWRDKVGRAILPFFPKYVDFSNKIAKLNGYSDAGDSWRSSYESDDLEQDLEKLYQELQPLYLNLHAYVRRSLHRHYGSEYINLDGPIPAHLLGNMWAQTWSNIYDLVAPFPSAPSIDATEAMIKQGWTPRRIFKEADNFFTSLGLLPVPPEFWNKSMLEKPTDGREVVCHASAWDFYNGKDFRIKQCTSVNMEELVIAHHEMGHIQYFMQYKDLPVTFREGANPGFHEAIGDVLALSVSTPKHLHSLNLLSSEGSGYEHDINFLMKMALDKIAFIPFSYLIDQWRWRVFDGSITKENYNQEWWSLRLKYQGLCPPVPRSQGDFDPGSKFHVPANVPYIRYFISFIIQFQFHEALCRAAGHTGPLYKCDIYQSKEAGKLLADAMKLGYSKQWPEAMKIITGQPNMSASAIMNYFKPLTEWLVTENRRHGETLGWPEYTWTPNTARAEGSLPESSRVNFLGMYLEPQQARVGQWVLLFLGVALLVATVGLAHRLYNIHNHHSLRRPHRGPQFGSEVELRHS
# Sequence of Neprilysin (P08473 whole entry): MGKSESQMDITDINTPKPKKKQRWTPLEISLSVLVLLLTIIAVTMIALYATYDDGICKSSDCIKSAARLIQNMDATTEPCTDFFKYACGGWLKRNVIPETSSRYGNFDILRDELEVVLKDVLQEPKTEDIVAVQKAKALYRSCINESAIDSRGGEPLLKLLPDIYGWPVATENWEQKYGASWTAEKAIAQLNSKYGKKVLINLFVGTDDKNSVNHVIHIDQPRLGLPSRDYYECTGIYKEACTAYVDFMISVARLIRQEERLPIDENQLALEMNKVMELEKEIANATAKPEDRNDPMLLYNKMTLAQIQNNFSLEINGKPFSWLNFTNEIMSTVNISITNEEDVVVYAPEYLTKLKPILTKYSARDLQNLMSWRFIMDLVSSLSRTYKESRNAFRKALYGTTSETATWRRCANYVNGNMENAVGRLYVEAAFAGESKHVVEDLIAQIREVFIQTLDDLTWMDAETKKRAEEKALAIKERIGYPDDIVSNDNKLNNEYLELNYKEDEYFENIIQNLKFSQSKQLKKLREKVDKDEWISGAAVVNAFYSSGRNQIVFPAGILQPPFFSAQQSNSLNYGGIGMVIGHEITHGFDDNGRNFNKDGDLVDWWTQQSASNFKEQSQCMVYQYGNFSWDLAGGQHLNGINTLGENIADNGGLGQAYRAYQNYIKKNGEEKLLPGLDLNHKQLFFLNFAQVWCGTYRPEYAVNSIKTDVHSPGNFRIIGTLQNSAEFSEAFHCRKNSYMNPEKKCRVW
IC50 (Neprilysin) [nM],IC50 [1] [nM],Structure (SMILES),ED50 (Rattus norvegicus) [µmol/kg]
484,,CN1CCC[C@H](NC(=O)[C@@H](S)Cc2ccccc2)C(=O)N1CC(=O)O,
,12,O=C(O)CN1C(=O)[C@@H](NC(=O)[C@@H](S)Cc2ccccc2)CCc2ccccc21,0.02
486,,O=C(O)CN1NCCC[C@H](NC(=O)[C@@H](S)Cc2ccccc2)C1=O,
55,,CN1C(=O)CC[C@H](NC(=O)[C@@H](S)Cc2ccccc2)C(=O)N1CC(=O)O,0.13
22,,O=C(N[C@H]1CCCN2CC[C@@H](C(=O)O)N2C1=O)[C@@H](S)Cc1ccccc1,0.12
140,,O=C(N[C@H]1CCC(=O)N2CC[C@@H](C(=O)O)N2C1=O)[C@@H](S)Cc1ccccc1,
16,,O=C(N[C@H]1CCC(=O)N2CCC[C@@H](C(=O)O)N2C1=O)[C@@H](S)Cc1ccccc1,0.23
3,,O=C(N[C@H]1CCCN2CCC[C@@H](C(=O)O)N2C1=O)[C@@H](S)Cc1ccccc1,0.01
1490,,CCCN1CCC[C@H](NC(=O)[C@@H](S)Cc2ccccc2)C(=O)N1CC(=O)O,
1920,,CCCN1C(=O)CC[C@H](NC(=O)[C@@H](S)Cc2ccccc2)C(=O)N1CC(=O)O,
